Tested on: 18 hour fasted Wistar rats
Test: hypoglycaemic activity in 18 hour fasted Wistar rats
Format: in vivo
Conditions: for mean fall (blood glucose): compound at 15 mg/kg p.o., chlorpropamide positive control, dose not given
Method: The compound was evaluated for hypoglycaemic activity in 18 hour fasted Wistar rats. […] The mean fall recorded was 24 mg/100 ml blood, from an initial mean of 91 to mean of 67 mg/100 ml blood.

Row | SMILES | mean fall (blood glucose) [mg/100 ml blood] | hypoglycaemic effect (15 mg/kg p.o.) | mean blood level after treatment (15 mg/kg p.o., after treatment) [mg/100 ml blood] | initial mean blood level (initial value of the treated group) [mg/100 ml blood]
1 | CCCNC(=O)NS(=O)(=O)c1ccc(Cl)cc1 [chlorpropamide, reference compound] | 18 |  |  | 
2 | OC[C@H]1O[C@@H](c2c(O)ccc3cc(Cc4ccc(O)cc4)oc23)[C@H](O)[C@@H](O)[C@@H]1O [formula 1, 6-hydroxy-2-p-hydroxybenzylbenzofuran-7-C-β-D-glucopyranoside] | 24 | hypoglycaemic effect was recorded in all the treated rats | 67 | 91

— patent publication US6562791B1, “Glucopyranoside, process for isolation thereof, pharmaceutical composition containing same and use thereof” (Council of Scientific and Industrial Research, priority 2002, dated 2003)
